The results in this text go back to patent US12459951B2, “Compounds that interact with RAS superfamily proteins for treatment of cancers, inflammatory diseases, rasopathies, and fibrotic disease” (SHY Therapeutics, LLC, priority 2022, dated 2025).

In test [1] the test system is Akt phosphorylation. Put plainly: Akt Phosphorylation Assay (western blot), Panc-1. It is filed as cell-based, human. The settings on record: at 10 μM, * = activation. The essentials: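 Phospho-Akt (Ser473) was measured by western blot in lysates of KRas G12D Panc-1 cells exposed to test compound for 6 h at 37 °C, either at 10 μM final with 0.3% DMSO or as serial dilutions for IC50. One format used overnight 0.5% FBS starvation followed by a 15 min pulse of 1.5 ng/ml EGF. The other used cells in 10% FBS with no stimulation.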
On the technique in general: Immunoblotting shows a protein as a band on a membrane.

In test [2] the test system is IL6. Put plainly: IL-6 Quantification Assay (ELISA), LPS-stimulated RAW 264.7. It is filed as cell-based. Details: inhibition: dose or concentration left out as unconfirmed. The settings on record: Mus musculus, RAW264.7; read-out: IL-6: % inh. On the technique in general: An ELISA detects its analyte on a solid surface through an enzyme-linked reagent.
For test [3], the system named is TNF-alpha. Put plainly: TNF-alpha Quantification Assay (ELISA), LPS-stimulated RAW 264.7. The test is classed as cell-based. The settings on record: Mus musculus, RAW264.7; at 10 μM; read-out: TNFα: % inh.
In test [4] the test system is KRas wild type. Kind of test: Ras GTP Binding Domain Inhibition Assay (Ras Superfamily Assay). The settings on record: for KRas wild type + SOS: % inh.: with SOS; for KRas wild type: % inh.: without SOS. The essentials:
(§1)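 His-tagged GTPases immobilised on nickel-coated plates, pre-incubated with compound (20 μM single point, or serial dilution for IC50) 3 h at room temperature, with or without 10-30 μg/mL Sos (residues 556-1049) in the final hour. Bound Cy3- or Cy5-GTP (100 nM, 45 min) measured by fluorescence after washing.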

Test [5] relates to KRas G12D mutant. The description is as above. The settings on record: for KRas G12D mutant + SOS: % inh.: with SOS; for KRas G12D mutant: % inh.: without SOS. The essentials: as §1
For test [6], the target named is T1, Rac-1 (Homo sapiens, UniProt P63000).
T1 construct: made in house
Described as above. The settings on record: read-out: Rac-1: % inh. The essentials:
as §1

`CO[C@H]1C[C@@H](Nc2nc(-c3nccn3C)nn3cc(-c4ccncc4)c(-c4ccccc4)c23)C1` [Compound 198, N-((1s,3s)-3-Methoxycyclobutyl)-2-(1-methyl-1H-imidazol-2-yl)-5-phenyl-6-(pyridin-4-yl)pyrrolo[2,1-f][1,2,4]triazin-4-amine]: the “% inh of Akt phosphorylation in Panc-1” value in test [1] is listed as “C (50-84% inhibition)”. For the same molecule, the inhibition in test [2] lay within 25 to 49%. The inhibition at 10 µM in test [3] lay within 25 to 49%. For the same molecule, in test [4] (at 20 μM), the “KRas wild type + SOS: % inh.” value was “B (B = 26-49% inhibition)” and the “KRas wild type: % inh.” value is reported as “A (A = 1-25% inhibition)”. In test [5] (at 20 μM), the “KRas G12D mutant + SOS: % inh.” value is “B (B = 26-49% inhibition)” and the “KRas G12D mutant: % inh.” value is “B (B = 26-49% inhibition)”. Moreover, the inhibition at 20 µM in test [6] was in the range of 26 to 49%.

Take `CO[C@H]1CC[C@H](Nc2nc(-c3nccn3C)nn3cc(-c4ccn(C)n4)c(C(=O)NCCN4CCOCC4)c23)C1` (racemic) [Compound 185, rac 4-(((1S,3S)-3-methoxycyclo-pentyl)amino)-2-(1-methyl-1H-imidazol-2-yl)-6-(1-methyl-1H-pyrazol-3-yl)-N-(2-morpholino-ethyl)pyrrolo[2,1-f][1,2,4]triazine-5-carboxamide]: the “% inh of Akt phosphorylation in Panc-1” value in test [1] is reported as “A (1-25% inhibition)”. In addition, the inhibition in test [2] is 25 to 49%. In test [3], the inhibition at 10 µM lay in the range of 25 to 49%. Moreover, in test [4] (20 μM compound), the “KRas wild type + SOS: % inh.” value is listed as 0 (0 = 0% inhibition) and the “KRas wild type: % inh.” value is reported as “A (A = 1-25% inhibition)”. Besides, in test [5] (20 μM compound), the “KRas G12D mutant + SOS: % inh.” value is given as 0 (0 = 0% inhibition) and the “KRas G12D mutant: % inh.” value is reported as “A (A = 1-25% inhibition)”. In addition, the inhibition at 20 µM in test [6] is 0%.

For `COc1ccnc(Nc2nc(-c3nccn3C)nn3cc(-c4ccn(CCN)n4)c(C)c23)c1` [Compound 187, 6-(1-(2-Aminoethyl)-1H-pyrazol-3-yl)-N-(4-methoxypyridin-2-yl)-5-methyl-2-(1-methyl-1H-imidazol-2-yl)pyrrolo[2,1-f][1,2,4]triazin-4-amine], the “% inh of Akt phosphorylation in Panc-1” value in test [1] is on record as “C* (46-84% activation)”. Also, the inhibition in test [2] lay within 50 to 74%. Also, the inhibition at 10 µM in test [3] is 1 to 24%. For the same molecule, in test [4] (at 20 μM), the “KRas wild type + SOS: % inh.” value was “D (D = 76-100% inhibition)” and the “KRas wild type: % inh.” value is “D (D = 76-100% inhibition)”. Besides, in test [5] (at 20 μM), the “KRas G12D mutant + SOS: % inh.” value is listed as “D (D = 76-100% inhibition)” and the “KRas G12D mutant: % inh.” value is listed as “D (D = 76-100% inhibition)”. Moreover, the inhibition at 20 µM in test [6] was in the range of 76 to 100%.

Take `CO[C@H]1C[C@H](S(=O)(=O)Nc2nc(-c3nccn3C)nn3cc(-c4ccccc4)c(-c4ccccc4)c23)C1` [Compound 214, (1r,3r)-3-Methoxy-N-(2-(1-methyl-1H-imidazol-2-yl)-5,6-diphenylpyrrolo[2,1-f][1,2,4]triazin-4-yl)cyclobutane-1-sulfonamide]: the “% inh of Akt phosphorylation in Panc-1” value in test [1] is given as “A* (1-25% activation)”. In addition, in test [2], the inhibition was in the range of 1 to 24%. In addition, the inhibition at 10 µM in test [3] was found to be 0%. Also, in test [4] (at 20 μM), the “KRas wild type + SOS: % inh.” value is “C (C = 50-75% inhibition)” and the “KRas wild type: % inh.” value is “C (C = 50-75% inhibition)”. Also, in test [5] (at 20 μM), the “KRas G12D mutant + SOS: % inh.” value was “C (C = 50-75% inhibition)” and the “KRas G12D mutant: % inh.” value is “C (C = 50-75% inhibition)”. Also, the inhibition at 20 µM in test [6] lay in the range of 50 to 75%.

Turning to `Cc1c(-c2ccn(C)n2)cn2nc(-c3nccn3C)nc(Nc3cc(C(C)(C)O)ccn3)c12` [Compound 240, 2-(2-((5-Methyl-2-(1-methyl-1H-imidazol-2-yl)-6-(1-methyl-1H-pyrazol-3-yl)pyrrolo[2,1-f][1,2,4]triazin-4-yl)amino)pyridin-4-yl)propan-2-ol], in test [1], the “% inh of Akt phosphorylation in Panc-1” value is given as “D* (85-100% activation)”. Moreover, the inhibition in test [2] was 50 to 74%. In addition, the inhibition at 10 µM in test [3] was 0%. Further, in test [4] (at 20 μM), the “KRas wild type + SOS: % inh.” value was “D (D = 76-100% inhibition)” and the “KRas wild type: % inh.” value is “D (D = 76-100% inhibition)”. In test [5] (at 20 μM), the “KRas G12D mutant + SOS: % inh.” value is listed as “D (D = 76-100% inhibition)” and the “KRas G12D mutant: % inh.” value is “D (D = 76-100% inhibition)”. Also, the inhibition at 20 µM in test [6] lay within 76 to 100%.

On to `COc1cc(Nc2nc(-c3nccn3C)nn3cc(-c4ccn(C)n4)c(C)c23)ncc1C` [Compound 235, N-(4-Methoxy-5-methylpyridin-2-yl)-5-methyl-2-(1-methyl-1H-imidazol-2-yl)-6-(1-methyl-1H-pyrazol-3-yl)pyrrolo[2,1-f][1,2,4]triazin-4-amine], for which the “% inh of Akt phosphorylation in Panc-1” value in test [1] is given as “D* (85-100% activation)”. In addition, the inhibition in test [2] fell in the range of 50 to 84%. Besides, the inhibition at 10 µM in test [3] came to 0%. Moreover, in test [4] (at 20 μM), the “KRas wild type + SOS: % inh.” value is given as “B (B = 26-49% inhibition)” and the “KRas wild type: % inh.” value is “C (C = 50-75% inhibition)”. In addition, in test [5] (at 20 μM), the “KRas G12D mutant + SOS: % inh.” value was “C (C = 50-75% inhibition)” and the “KRas G12D mutant: % inh.” value is on record as “C (C = 50-75% inhibition)”. The inhibition at 20 µM in test [6] lay within 50 to 75%.

With `Cc1c(-c2ccn(C)n2)cn2nc(-c3nccn3C)nc(Nc3ccc(OC(F)(F)F)cn3)c12` [Compound 232, 5-Methyl-2-(1-methyl-1H-imidazol-2-yl)-6-(1-methyl-1H-pyrazol-3-yl)-N-(5-(trifluoro-methoxy)pyridin-2-yl)pyrrolo[2,1-f][1,2,4]triazin-4-amine], the “% inh of Akt phosphorylation in Panc-1” value in test [1] is recorded as “D* (85-100% activation)”. In test [2], the inhibition lay in the range of 25 to 49%. In addition, the inhibition at 10 µM in test [3] was in the range of 1 to 24%. Besides, in test [4] (at 20 μM), the “KRas wild type + SOS: % inh.” value was “D (D = 76-100% inhibition)” and the “KRas wild type: % inh.” value is “D (D = 76-100% inhibition)”. For the same molecule, in test [5] (at 20 μM), the “KRas G12D mutant + SOS: % inh.” value was “D (D = 76-100% inhibition)” and the “KRas G12D mutant: % inh.” value is given as “D (D = 76-100% inhibition)”. Further, in test [6], the inhibition at 20 µM fell in the range of 76 to 100%.

In the case of `Cn1ccnc1-c1nc(NS(C)(=O)=O)c2c(-c3ccccc3)c(-c3ccccc3)cn2n1` [Compound 212, N-(2-(1-Methyl-1H-imidazol-2-yl)-5,6-diphenylpyrrolo[2,1-f][1,2,4]triazin-4-yl) methanesulfonamide], in test [1], the “% inh of Akt phosphorylation in Panc-1” value was “A* (1-25% activation)”. Further, the inhibition in test [2] was in the range of 1 to 24%. Moreover, the inhibition at 10 µM in test [3] came to 0%. Moreover, in test [4] (at 20 μM), the “KRas wild type + SOS: % inh.” value was “D (D = 76-100% inhibition)” and the “KRas wild type: % inh.” value is recorded as “C (C = 50-75% inhibition)”. Besides, in test [5] (at 20 μM), the “KRas G12D mutant + SOS: % inh.” value is listed as “D (D = 76-100% inhibition)” and the “KRas G12D mutant: % inh.” value was “C (C = 50-75% inhibition)”. Besides, the inhibition at 20 µM in test [6] is 50 to 75%.

Turning to `CO[C@H]1C[C@H](Nc2nc(-c3nccn3C)nn3cc(-c4cccc(OCCN)c4)c(-c4ccccc4)c23)C1` [Compound 205, 6-(3-(2-Aminoethoxy)phenyl)-N-((1r,3r)-3-methoxycyclobutyl)-2-(1-methyl-1H-imidazol-2-yl)-5-phenylpyrrolo[2,1-f][1,2,4]triazin-4-amine], the “% inh of Akt phosphorylation in Panc-1” value in test [1] is given as “C* (46-84% activation)”. For the same molecule, in test [4] (at 20 μM), the “KRas wild type + SOS: % inh.” value was “A (A = 1-25% inhibition)” and the “KRas wild type: % inh.” value was “A (A = 1-25% inhibition)”. In test [5] (at 20 μM), the “KRas G12D mutant + SOS: % inh.” value is “A (A = 1-25% inhibition)” and the “KRas G12D mutant: % inh.” value is “A (A = 1-25% inhibition)”. Moreover, in test [6], the inhibition at 20 µM lay within 1 to 25%.
